Experiment [1] has as its target T1, Human pancreatic α-amylase (HPA) (Homo sapiens, UniProt P04746).
T1 sequence (P04746 16-511): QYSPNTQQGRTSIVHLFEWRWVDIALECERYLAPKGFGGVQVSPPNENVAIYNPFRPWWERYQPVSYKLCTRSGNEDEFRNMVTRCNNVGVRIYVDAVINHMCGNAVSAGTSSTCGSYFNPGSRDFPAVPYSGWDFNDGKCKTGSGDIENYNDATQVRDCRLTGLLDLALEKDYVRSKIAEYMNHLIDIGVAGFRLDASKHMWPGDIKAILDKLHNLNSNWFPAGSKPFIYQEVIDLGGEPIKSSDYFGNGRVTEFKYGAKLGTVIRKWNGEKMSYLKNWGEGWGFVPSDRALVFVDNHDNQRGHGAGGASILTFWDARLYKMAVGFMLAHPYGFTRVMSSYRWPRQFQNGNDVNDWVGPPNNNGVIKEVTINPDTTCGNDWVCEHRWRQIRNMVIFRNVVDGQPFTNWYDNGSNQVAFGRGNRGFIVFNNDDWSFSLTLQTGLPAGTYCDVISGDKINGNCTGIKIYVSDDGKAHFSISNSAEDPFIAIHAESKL
The experiment can be described thus: biochemical.

Experiment [2] deals with Homo sapiens maltase-glucoamylase (Homo sapiens, UniProt O43451). The experiment can be described thus: Specificity analysis of M10: maltase-glucoamylase. In kind it is biochemical. To be noted: read-out: M10 IC50; 37 °C, pH 7, PNP α-Glc.
Experiment [3] addresses H. sapiens C-term sucrase-isomaltase (Homo sapiens, UniProt P14410). The experiment can be described thus: Specificity analysis: C-term sucrase-isomaltase. It is filed as biochemical. The note with it: read-out: M10 IC50; 37 °C, pH 7, PNP α-Glc.
Experiment [4] addresses T2, Agrobacterium β-glucosidase (Agrobacterium sp., UniProt P12614).
T2 sequence (P12614 1-459): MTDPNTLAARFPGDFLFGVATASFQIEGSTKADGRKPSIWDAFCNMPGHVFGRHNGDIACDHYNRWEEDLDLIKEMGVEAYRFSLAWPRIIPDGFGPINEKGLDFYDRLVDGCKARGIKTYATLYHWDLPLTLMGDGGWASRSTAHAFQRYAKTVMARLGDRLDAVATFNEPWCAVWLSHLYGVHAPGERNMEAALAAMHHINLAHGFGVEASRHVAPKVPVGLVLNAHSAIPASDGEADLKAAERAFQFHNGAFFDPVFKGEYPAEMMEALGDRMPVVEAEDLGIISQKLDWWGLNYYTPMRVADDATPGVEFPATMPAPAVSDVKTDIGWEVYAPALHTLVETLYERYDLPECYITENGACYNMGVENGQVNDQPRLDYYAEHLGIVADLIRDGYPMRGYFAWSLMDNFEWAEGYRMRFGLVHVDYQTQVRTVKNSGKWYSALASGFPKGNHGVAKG
The experiment can be described thus: Specificity analysis of M10: Agrobacterium β-glucosidase. It is filed as biochemical.

For experiment [5], the target named is Green coffee bean α-galactosidase (Coffea arabica, UniProt Q42656). The experiment can be described thus: Specificity analysis of M10: green coffee bean α-galactosidase. The note with it: read-out: M10 IC50; 37 °C, pH 7. It is filed as biochemical.
Chain of Green coffee bean α-galactosidase (Q42656 16-378): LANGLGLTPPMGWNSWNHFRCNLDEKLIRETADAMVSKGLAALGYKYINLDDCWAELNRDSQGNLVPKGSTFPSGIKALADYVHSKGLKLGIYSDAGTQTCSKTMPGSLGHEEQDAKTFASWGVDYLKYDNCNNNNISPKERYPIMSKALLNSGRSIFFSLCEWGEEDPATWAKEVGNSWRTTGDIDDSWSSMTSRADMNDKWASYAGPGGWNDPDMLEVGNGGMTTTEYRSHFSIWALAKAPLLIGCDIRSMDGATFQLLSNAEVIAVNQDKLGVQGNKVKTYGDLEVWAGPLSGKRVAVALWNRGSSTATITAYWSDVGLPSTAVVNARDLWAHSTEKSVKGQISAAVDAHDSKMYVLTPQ
A further experiment concerns the target T3, Jack bean α-mannosidase (Canavalia ensiformis, UniProt C0HJB3).
T3 sequence (C0HJB3 1-981): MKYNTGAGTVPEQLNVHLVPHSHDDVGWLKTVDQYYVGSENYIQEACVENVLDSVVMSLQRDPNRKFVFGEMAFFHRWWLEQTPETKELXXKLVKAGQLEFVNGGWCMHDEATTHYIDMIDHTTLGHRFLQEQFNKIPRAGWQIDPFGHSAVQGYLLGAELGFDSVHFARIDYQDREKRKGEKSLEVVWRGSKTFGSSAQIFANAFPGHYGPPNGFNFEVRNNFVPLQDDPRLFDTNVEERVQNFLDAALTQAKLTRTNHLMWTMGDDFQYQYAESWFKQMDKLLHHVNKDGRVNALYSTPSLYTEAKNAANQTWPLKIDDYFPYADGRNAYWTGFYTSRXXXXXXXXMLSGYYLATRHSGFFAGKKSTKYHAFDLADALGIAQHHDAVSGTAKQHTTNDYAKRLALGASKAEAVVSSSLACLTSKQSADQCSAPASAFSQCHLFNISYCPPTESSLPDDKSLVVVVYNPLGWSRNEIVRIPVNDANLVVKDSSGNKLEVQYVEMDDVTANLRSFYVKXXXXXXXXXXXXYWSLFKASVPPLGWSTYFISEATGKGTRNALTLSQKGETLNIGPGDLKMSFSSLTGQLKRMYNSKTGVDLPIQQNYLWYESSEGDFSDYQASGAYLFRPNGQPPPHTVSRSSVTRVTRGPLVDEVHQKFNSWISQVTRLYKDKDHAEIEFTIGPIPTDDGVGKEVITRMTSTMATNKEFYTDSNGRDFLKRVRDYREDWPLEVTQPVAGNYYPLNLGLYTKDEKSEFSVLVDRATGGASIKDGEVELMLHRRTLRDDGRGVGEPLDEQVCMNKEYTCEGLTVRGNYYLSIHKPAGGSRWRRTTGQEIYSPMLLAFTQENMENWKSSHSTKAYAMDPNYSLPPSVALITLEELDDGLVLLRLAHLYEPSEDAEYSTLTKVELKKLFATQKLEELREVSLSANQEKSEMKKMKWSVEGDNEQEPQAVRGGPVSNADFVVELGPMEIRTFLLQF
The experiment can be described thus: Specificity analysis of M10: Jack bean α-mannosidase. It is filed as biochemical. The note with it: read-out: M10 IC50; 37 °C, pH 7.

Experiment [6] addresses T1, Human pancreatic α-amylase (HPA). The note with it: relative to M09.
A further experiment has as its target E. coli β-galactosidase (Escherichia coli, UniProt P00722). The experiment can be described thus: Specificity analysis of M10: E. coli β-galactosidase. To be noted: read-out: M10 IC50; 37 °C, pH 7, 1.0 mM MgCl2.

Chain of E. coli β-galactosidase (P00722 2-1024 limits assumed): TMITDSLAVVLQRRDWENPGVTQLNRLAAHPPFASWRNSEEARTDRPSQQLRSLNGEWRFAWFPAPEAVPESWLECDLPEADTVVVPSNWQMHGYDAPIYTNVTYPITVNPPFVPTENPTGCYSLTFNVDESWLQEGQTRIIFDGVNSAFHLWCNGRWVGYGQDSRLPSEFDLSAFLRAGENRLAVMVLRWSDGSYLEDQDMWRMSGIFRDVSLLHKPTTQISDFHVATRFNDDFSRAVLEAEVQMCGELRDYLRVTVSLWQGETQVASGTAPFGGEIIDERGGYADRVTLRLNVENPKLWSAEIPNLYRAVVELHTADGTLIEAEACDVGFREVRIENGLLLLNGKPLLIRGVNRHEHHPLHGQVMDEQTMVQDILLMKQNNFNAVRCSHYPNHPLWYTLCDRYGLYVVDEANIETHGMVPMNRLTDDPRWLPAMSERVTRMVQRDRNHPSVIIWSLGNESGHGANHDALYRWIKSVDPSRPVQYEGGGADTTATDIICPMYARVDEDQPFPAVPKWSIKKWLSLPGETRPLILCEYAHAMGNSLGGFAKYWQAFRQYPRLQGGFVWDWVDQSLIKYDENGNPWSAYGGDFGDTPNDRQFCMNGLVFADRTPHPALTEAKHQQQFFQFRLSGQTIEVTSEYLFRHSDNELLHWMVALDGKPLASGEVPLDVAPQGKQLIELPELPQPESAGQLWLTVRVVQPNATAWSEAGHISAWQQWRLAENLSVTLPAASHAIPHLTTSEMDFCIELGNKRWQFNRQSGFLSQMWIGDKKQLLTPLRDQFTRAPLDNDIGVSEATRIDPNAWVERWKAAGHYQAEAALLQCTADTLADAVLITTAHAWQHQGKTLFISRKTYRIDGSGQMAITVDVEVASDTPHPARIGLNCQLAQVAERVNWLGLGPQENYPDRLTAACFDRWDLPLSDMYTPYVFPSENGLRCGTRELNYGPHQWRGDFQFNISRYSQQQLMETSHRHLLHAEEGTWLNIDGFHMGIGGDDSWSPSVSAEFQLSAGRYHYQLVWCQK
Chain of H. sapiens C-term sucrase-isomaltase (P14410 1008-1827 limits assumed): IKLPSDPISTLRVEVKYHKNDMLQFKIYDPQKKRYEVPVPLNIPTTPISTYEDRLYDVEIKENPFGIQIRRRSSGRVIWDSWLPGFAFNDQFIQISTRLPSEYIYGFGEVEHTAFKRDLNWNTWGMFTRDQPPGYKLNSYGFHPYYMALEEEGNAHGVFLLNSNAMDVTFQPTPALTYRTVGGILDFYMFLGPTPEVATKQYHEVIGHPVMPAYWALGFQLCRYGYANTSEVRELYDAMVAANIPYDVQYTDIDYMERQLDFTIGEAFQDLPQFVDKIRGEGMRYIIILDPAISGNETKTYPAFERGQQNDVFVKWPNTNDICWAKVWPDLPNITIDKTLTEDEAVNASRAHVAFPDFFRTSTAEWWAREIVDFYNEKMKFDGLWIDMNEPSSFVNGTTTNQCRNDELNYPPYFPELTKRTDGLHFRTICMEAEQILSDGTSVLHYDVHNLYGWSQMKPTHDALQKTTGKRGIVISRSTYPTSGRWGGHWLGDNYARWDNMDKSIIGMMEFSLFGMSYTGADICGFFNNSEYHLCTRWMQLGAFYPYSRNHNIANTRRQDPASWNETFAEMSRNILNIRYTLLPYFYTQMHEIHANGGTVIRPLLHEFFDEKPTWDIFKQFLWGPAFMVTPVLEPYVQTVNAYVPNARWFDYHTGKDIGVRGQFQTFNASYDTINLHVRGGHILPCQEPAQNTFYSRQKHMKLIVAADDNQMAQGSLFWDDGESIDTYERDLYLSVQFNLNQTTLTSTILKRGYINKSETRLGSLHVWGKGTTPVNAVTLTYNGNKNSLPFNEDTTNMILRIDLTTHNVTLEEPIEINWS

In general, Ki refers to a measure of affinity in units of concentration, obtained from inhibition or displacement. A high value points to lower affinity. Regarding `O=C(/C=C/c1ccc(O)c(O)c1)NCC(=O)NCCCOc1c(-c2ccc(O)c(O)c2)oc2cc(O)cc(O)c2c1=O` [M05], the affinity in experiment [1] corresponds to a Ki of 60 ± 10 µM.

As a reminder, the IC50 is the point on the concentration scale where inhibition reaches its midpoint. On to `O=C(/C=C/c1ccc(O)c(O)c1)N[C@@H](Cc1ccc(O)cc1)C(=O)NCCCOc1c(-c2ccc(O)c(O)c2)oc2cc(O)cc(O)c2c1=O` [M10], for which the IC50 was greater than 7 µM in experiment [2]; greater than 7 µM in experiment [3]; 35.4 ± 5.7 µM in experiment [4]; greater than 7 µM in experiment [5]; greater than 7 µM at Jack bean α-mannosidase; greater than 7 µM at E. coli β-galactosidase. For the same molecule, in experiment [6], the “Further contribution to the binding affinity” value is reported as roughly 2.5 kcal mol^–1.

For the molecule `O=C(/C=C/c1ccc(O)c(O)c1)NCCCOc1c(-c2ccc(O)c(O)c2)oc2cc(O)cc(O)c2c1=O` [M03], in experiment [1], affinity was put at a Ki of 110 ± 10 µM.

Turning to `O=C(/C=C/c1ccc(O)c(O)c1)N[C@@H](Cc1ccc(O)c(O)c1)C(=O)NCCCOc1c(-c2ccc(O)c(O)c2)oc2cc(O)cc(O)c2c1=O` [M11], the “Further contribution to the binding affinity” value in experiment [6] is roughly 2.5 kcal mol^–1. In experiment [1], this molecule yielded a Ki of 0.06 µM.

The values are drawn from article PMC7069248 (Chemical Science, 2019).
